Test results reported in BigSolDB 2.1.

CC(C)(C)NC[C@H](O)COc1nsnc1N1CCOCC1.O=C(O)/C=C\C(=O)O
Details | solubility (mole fraction)
in 2-methyltetrahydrofuran, 293.2 K | 0.0001
in 2-methyltetrahydrofuran, 303.2 K | 0.00017
in 2-methyltetrahydrofuran, 313.2 K | 0.00038
in 2-methyltetrahydrofuran, 323.2 K | 0.00067
in 2-methyltetrahydrofuran, 333.2 K | 0.0013
in acetone, 281.1 K | 0.00048
in acetone, 288.3 K | 0.00056
in acetone, 292.8 K | 0.00065
in acetone, 301.9 K | 0.00089
in acetone, 313.3 K | 0.00121
in acetone, 323.1 K | 0.00166
in cyrene, 284 K | 0.00047
in cyrene, 286.1 K | 0.00054
in cyrene, 289.8 K | 0.00075
in cyrene, 292.4 K | 0.001
in cyrene, 301.1 K | 0.00146
in cyrene, 312.2 K | 0.0023
in cyrene, 323.7 K | 0.00379
in cyrene, 332 K | 0.0055
in dimethyl isosorbide, 282.6 K | 0.00022
in dimethyl isosorbide, 289.1 K | 0.00034
in dimethyl isosorbide, 297.5 K | 0.00052
in dimethyl isosorbide, 309.7 K | 0.00072
in dimethyl isosorbide, 325.9 K | 0.00117
in dimethyl isosorbide, 330.9 K | 0.00151
in ethanol, 280.1 K | 0.00105
in ethanol, 285 K | 0.0012
in ethanol, 290.8 K | 0.00145
in ethanol, 302.3 K | 0.00217
in ethanol, 312.8 K | 0.00319
in ethanol, 322.7 K | 0.00471
in ethanol, 329.8 K | 0.00648
in isopropanol, 279.5 K | 0.00013
in isopropanol, 282.9 K | 0.00014
in isopropanol, 290.9 K | 0.00018
in isopropanol, 293.6 K | 0.00025
in isopropanol, 298.8 K | 0.00037
in isopropanol, 313.7 K | 0.0006
in isopropanol, 321.7 K | 0.00097
in isopropanol, 330.1 K | 0.00143
in n-butanol, 278.3 K | 0.00028
in n-butanol, 281.7 K | 0.00034
in n-butanol, 284.8 K | 0.00038
in n-butanol, 289.6 K | 0.00049
in n-butanol, 303.2 K | 0.00075
in n-butanol, 305.1 K | 0.00087
in n-butanol, 309.1 K | 0.00102
in n-butanol, 316.3 K | 0.00144
in n-butanol, 321.4 K | 0.00178
in n-butanol, 328.7 K | 0.00251
in water, 286 K | 0.00245
in water, 293.1 K | 0.00277
in water, 300.5 K | 0.00319
in water, 305 K | 0.00352
in water, 313.9 K | 0.00449
in water, 320.8 K | 0.00572
in water, 325.8 K | 0.00694
in water, 327.2 K | 0.0074
